Source: PubChem BioAssay (NCI)
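Dose response: 5 concentrations. Exposure: 48 h. Format: 96-well plates. Endpoint: linear interpolation; highest concentration if not reached. GI50 marks 50% less growth. The concentration for full growth arrest is given as TGI.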

Experiments:
Test in all cases: growth of human tumour cells (NCI), 48 h
HL-60(TB) leukemia = tested on: HL-60(TB) leukemia
MOLT-4 leukemia = tested on: MOLT-4 leukemia
NCI/ADR-RES ovarian = tested on: NCI/ADR-RES ovarian
OVCAR-8 ovarian = tested on: OVCAR-8 ovarian
RPMI-8226 leukemia = tested on: RPMI-8226 leukemia
SK-MEL-5 melanoma = tested on: SK-MEL-5 melanoma
SK-OV-3 ovarian = tested on: SK-OV-3 ovarian
SN12C renal = tested on: SN12C renal
DU-145 prostate = tested on: DU-145 prostate
PC-3 prostate = tested on: PC-3 prostate

SMILES	TGI (HL-60(TB) leukemia) [µM]	TGI (MOLT-4 leukemia) [µM]	TGI (NCI/ADR-RES ovarian) [µM]	TGI (OVCAR-8 ovarian) [µM]	TGI (RPMI-8226 leukemia) [µM]	TGI (SK-MEL-5 melanoma) [µM]	TGI (SK-OV-3 ovarian) [µM]	TGI (SN12C renal) [µM]	TGI (DU-145 prostate) [µM]	TGI (PC-3 prostate) [µM]	GI50 (DU-145 prostate) [µM]	GI50 (HL-60(TB) leukemia) [µM]	GI50 (MOLT-4 leukemia) [µM]	GI50 (NCI/ADR-RES ovarian) [µM]	GI50 (OVCAR-8 ovarian) [µM]	GI50 (PC-3 prostate) [µM]	GI50 (RPMI-8226 leukemia) [µM]	GI50 (SK-MEL-5 melanoma) [µM]	GI50 (SK-OV-3 ovarian) [µM]	GI50 (SN12C renal) [µM]
Cc1c2ccnc(-c3ccccc3)c2cc2c1[nH]c1ccccc12	5.35	6.96	6.36	7	8.25	2.78	9.39	7												
O=C(CSCC(=O)N/N=C/c1cccc(OCc2ccccc2)c1)N/N=C/c1cccc(OCc2ccccc2)c1	53.3	46.4	> 100	> 100	39.9	> 92.8	> 100	> 74	> 100	97.8										
O=C(O)c1ccccn1		> 100	> 100	> 100	> 100	> 100		> 100		> 100										
CCOC(=O)c1c2c(c(O)c3ccccc3c(O)n(-c3ccc(C)cc3)c1C)C(=O)C=CC2=O	51.4	29.4	48.7	41.3	30.3	31.9	89.7	58.9	91	> 100										
COc1ccc(-n2c3c(c4cc(O)ccc42)C(=O)c2ccccc2C3=O)cc1	> 100	> 100	24.9	13.6	> 100	> 100	2.73	92.9	> 100	87.3										
NCS(=O)(=O)O	> 100	> 100	> 100	> 100	> 100	> 100	> 100	> 100	> 100	> 100										
COc1cc2c(cc1OC)C(Cl)C(c1ccc(Cl)cc1)=C2Cl (centres undefined)	41	42.5		60.5	45.6	28.3	57.5	48.6												
C[C@@H]1CC[C@H]2C(COC/C=C/COCC3=C(C(F)(F)F)O[C@@H]4O[C@@]5(C)CC[C@H]6[C@H](C)CC[C@@H]3[C@@]46OO5)=C(C(F)(F)F)O[C@@H]3O[C@@]4(C)CC[C@@H]1[C@]32OO4	0.0468	40.6	> 71.3	> 32.6	> 100	> 100	> 100	0.685	> 100		0.531	< 0.01	< 0.01	3.14	< 0.0206	< 0.01	< 0.01	0.0866	> 100	0.0191
O=C(CC1(O)C(=O)Nc2ccc(Br)cc21)c1ccc(C(=O)NCC2CCC3(CC2)OOC2(CCCCC2)OO3)cc1 (centres undefined)		5.87	69.3	> 100	4.47	7.09	31.3	34.9	39.6	22.3	8.77		2.14	15.1	4.57	2.64	1.65	2.4	10.4	10.4
CN(C)c1ccc2nc3c(C(=O)O)cc(=O)c(O)c-3oc2c1	72.3	51.8	85.7	> 100	95.2	29.3	> 100	64.6	> 100	> 100										
COc1ccc(CNc2nc(NCc3ccc(OC)cc3)nc(NC(C)C)n2)cc1	17.7	> 100	18.9	33.6	5.3	16.5	> 100		66	23.9										
CN(C)c1ccc(C2CC(=O)C(C#N)=C(c3ccccc3)NN2C)cc1 (centres undefined)	19.9	> 100			> 100	11.9	> 100	> 100												
COc1cccc(-c2cccc(SC)n2)n1	31	> 100	> 100	> 100	78.1	44	> 100	> 100	> 100	> 100										
CCOC(=O)C1=C(C)N(C)C(=S)NC1c1cccc(O)c1 (centres undefined)	64	> 100	54.9	> 100	> 100	> 100	> 100	> 100	> 100	> 100										
CC[C@H](Nc1nc(N)nc(N)c1Cl)c1nc2cccc(NCc3ccc(C(=O)NO)cc3)c2c(=O)n1-c1ccccc1		16.6	> 100	5.05	5.92	3.22		4.78	10.5	3.7	2.91		1.47	12.4	1.69	1.53	2.15	1.75		1.78
CCN(CC)Cc1ccc2cccnc2c1O	75	10	2.1	7.01	23.7	> 100	25.1	47.2	> 100	> 100										
Cc1ccc(C)c(/C(=N\N=C(N)N)C2CC2)c1		> 100	> 100	> 100	> 100	> 100	> 100	> 100	> 100	> 100										
Oc1cc(O)cc(/C=C/c2ccc(O)c(O)c2)c1	> 28.4	> 46.5	51	> 100	> 93.8	> 49.1	47.7	40.8												
CC(C)CNc1nc(N)[nH]c(=O)c1NC=O	> 100	> 100	> 100	> 100	> 100	> 100	> 100	> 100	> 100	> 100										
c1ccc([C@@H]2N[C@@]3(CO[Si](c4ccccc4)(c4ccccc4)c4ccccc4)CC[C@H]4CN[C@@H]2[C@H]43)cc1	21.3	> 100	32.4	28.7	13.8	19.2	30.3	27.1	21.8	21.3										
O=C1c2ccccc2C(=O)c2c(NCCNC(=O)C3CCCN3)ccc(NCCNC(=O)C3CCCN3)c21 (centres undefined)	> 100	84.2	> 100	94.3	58.8	> 100	> 100	> 100	> 100	> 100										
Cc1ncc(CO)c(CN)c1O	> 100	> 100	> 100	> 100	> 100	> 100	> 100	> 100	> 100	> 100										
COc1cc2c(cc1OC)C1C(O)C(OC)C=C3CC[N+](C)(C2)C31 (centres undefined)	> 100	> 100	> 100	> 100	> 100	> 100	> 100	> 100	> 100	> 100										
C[C@H]1CCC/C=C/[C@@H]2C[C@H](O)C[C@H]2[C@H](O)[C@@H](S(=O)CCN)CC(=O)O1 (some centres undefined)			0.137	0.154	2.71	0.0295		0.472	0.552		0.163		0.0947	0.0196	< 0.0181	0.0442	0.294	0.015	0.0245	0.085
Cn1cnc2c(OCC3CCCCC3)nc(N)nc21	> 100	> 100	> 100	> 100	> 100	> 100	> 100	> 100	> 100	> 100										
CN(C)CCNC(=O)c1cccc2nc3c4ccccc4c4ccccc4c3nc12	4.09	4.96		7.76	5.3	15.7	13.4	3.64	3.2	3.05										
O=C(c1cc(Br)ccc1O)c1cc(Br)ccc1O	44.1	39	44.7	32	30.4	25.4	35.8	32.6	29.2	30.8										
COc1cc2ccc1-c1cc(ccc1O)CC1c3cc4c(cc3CCN1C)Oc1c(OC)cc3c(c1O4)C(C2)N(C)CC3 (centres undefined)	4.53	4.22			4.75	3.52		3.96												
C=CCNC(=O)/C(Cc1cc(Br)c(OC)c(Br)c1O)=N\O	5.43	> 100	11.4	20.9	> 100	11.6			25.1	> 100										
